This note sets out measurements from ChEMBL document CHEMBL1158467, “In vitro intrinsic clearance-based optimization of N3-phenylpyrazinones as corticotropin-releasing factor-1 (CRF1) receptor antagonists” (J Med Chem, 2009).

The assay concerns the target Corticotropin releasing hormone receptor 2 (Sus scrofa, UniProt B8Q4Z9). The assay is described as follows: Displacement of [125I]sauvagine from CRF2 receptor in pig choroid plexus by rapid filtration technique. The class given is tissue-based.

Sequence of Corticotropin releasing hormone receptor 2 (B8Q4Z9 whole entry): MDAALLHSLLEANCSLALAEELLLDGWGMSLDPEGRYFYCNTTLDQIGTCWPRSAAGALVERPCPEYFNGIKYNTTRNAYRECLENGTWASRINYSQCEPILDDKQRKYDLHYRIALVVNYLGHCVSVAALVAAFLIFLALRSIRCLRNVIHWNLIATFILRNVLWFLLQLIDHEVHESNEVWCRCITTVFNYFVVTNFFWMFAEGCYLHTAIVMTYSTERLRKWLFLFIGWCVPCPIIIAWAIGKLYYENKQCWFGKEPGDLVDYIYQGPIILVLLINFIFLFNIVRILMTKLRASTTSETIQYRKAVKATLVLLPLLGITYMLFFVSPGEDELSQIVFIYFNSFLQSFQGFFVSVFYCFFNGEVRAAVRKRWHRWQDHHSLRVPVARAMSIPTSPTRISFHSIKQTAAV

As a reminder, the IC50 is the midpoint of a concentration-inhibition curve. A higher IC50 goes with lower potency. As to `CC[C@H](C)[C@H](NC(=O)[C@@H](NC(=O)[C@H](CC(=O)O)NC(=O)[C@H](CC(C)C)NC(=O)[C@H](CC(C)C)NC(=O)[C@H](CC(C)C)NC(=O)[C@H](CCCNC(=N)N)NC(=O)[C@H](CC(N)=O)NC(=O)[C@H](CC(N)=O)NC(=O)[C@H](C)NC(=O)[C@H](C)NC(=O)[C@H](CCC(N)=O)NC(=O)[C@H](CCC(N)=O)NC(=O)[C@H](CCCCN)NC(=O)[C@H](CCC(=O)O)NC(=O)[C@H](CCCCN)NC(=O)[C@H](CCC(=O)O)NC(=O)[C@H](CCC(N)=O)NC(=O)[C@H](CCCCN)NC(=O)[C@H](CCC(=O)O)NC(=O)[C@@H](NC(=O)[C@H](CCC(=O)O)NC(=O)[C@@H](NC(=O)[C@H](CCSC)NC(=O)[C@H](CCCCN)NC(=O)[C@H](CCCNC(=N)N)NC(=O)[C@H](CC(C)C)NC(=O)[C@H](CC(C)C)NC(=O)[C@H](CCC(=O)O)NC(=O)[C@H](CC(C)C)NC(=O)[C@H](CO)NC(=O)[C@H](CC(C)C)NC(=O)[C@H](CC(=O)O)NC(=O)[C@@H](NC(=O)[C@H](CO)NC(=O)[C@@H](NC(=O)[C@@H]1CCCN1C(=O)[C@@H]1CCCN1C(=O)CNC(=O)[C@@H]1CCC(=O)N1)[C@@H](C)CC)[C@@H](C)CC)[C@@H](C)CC)[C@@H](C)CC)[C@@H](C)O)C(N)=O` [SAUVAGINE], the IC50 came out at 0.58 nM.
